Broadly, the Kb is the equilibrium dissociation constant of an antagonist, usually derived from a functional assay.

A value given as a limit tells only on which side of the number the result lay.

The values below come from US8735388B2, “Heterocyclic compounds with affinity to muscarinic receptors” (Abbvie B. V. A., priority 2007, dated 2014).

Data set [1] concerns the target T1, Muscarine M4 (GPCR-A-MA-ACH M4) (Homo sapiens, UniProt P08173).
T1 construct: expressed in transfected cells; host or cells: CHO cells
T1 sequence (P08173 1-479): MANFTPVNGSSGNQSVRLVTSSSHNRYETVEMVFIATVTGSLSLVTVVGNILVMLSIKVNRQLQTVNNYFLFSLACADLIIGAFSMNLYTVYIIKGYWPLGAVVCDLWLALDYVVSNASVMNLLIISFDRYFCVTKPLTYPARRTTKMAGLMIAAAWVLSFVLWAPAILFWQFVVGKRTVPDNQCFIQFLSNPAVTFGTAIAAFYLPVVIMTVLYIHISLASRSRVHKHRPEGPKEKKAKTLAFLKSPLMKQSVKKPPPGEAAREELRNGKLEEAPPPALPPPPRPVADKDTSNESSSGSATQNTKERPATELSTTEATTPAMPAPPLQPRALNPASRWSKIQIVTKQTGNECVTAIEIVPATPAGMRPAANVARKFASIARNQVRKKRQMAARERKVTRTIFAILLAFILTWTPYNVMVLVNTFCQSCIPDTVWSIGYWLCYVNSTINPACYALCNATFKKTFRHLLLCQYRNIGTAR
In words: Muscarine M4 receptor binding, 3H-4DAMP. Particulars: human M4, CHO cells, ligand 0.2 nM, 60 min/22° C., read-out: RB Musc. M4 3H-DAMP pKi (converted). In a few lines: (§1)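 Human M1 ([3H]-pirenzepine), M3, and M4 ([3H]-4DAMP or [3H]-oxotremorine) receptor preparations incubated with radioligand and compound, first at 10 μM, then at 10-fold lower concentrations if inhibition exceeded 40%. Bound ligand separated by glass-fibre filtration and counted by scintillation. IC50 from Hill fit, converted to Ki via Cheng-Prusoff, reported as pKi.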

Data set [2] has as its target T1, Muscarine M4 (GPCR-A-MA-ACH M4). In words: Muscarine M4 receptor binding, 3H-Oxotremorine. Particulars: human M4, CHO cells; receptor binding, ligand 6 nM, 30 min/25° C.; read-out: RB Musc. M4 3H-Oxotremorine pKi (converted). Put shortly: as §1
For data set [3], the target named is T2, Muscarine M3 (GPCR-A-MA-ACH M3) (Homo sapiens, UniProt P20309).
T2 construct: expressed in transfected cells; host or cells: CHO cells
T2 sequence (P20309 whole entry): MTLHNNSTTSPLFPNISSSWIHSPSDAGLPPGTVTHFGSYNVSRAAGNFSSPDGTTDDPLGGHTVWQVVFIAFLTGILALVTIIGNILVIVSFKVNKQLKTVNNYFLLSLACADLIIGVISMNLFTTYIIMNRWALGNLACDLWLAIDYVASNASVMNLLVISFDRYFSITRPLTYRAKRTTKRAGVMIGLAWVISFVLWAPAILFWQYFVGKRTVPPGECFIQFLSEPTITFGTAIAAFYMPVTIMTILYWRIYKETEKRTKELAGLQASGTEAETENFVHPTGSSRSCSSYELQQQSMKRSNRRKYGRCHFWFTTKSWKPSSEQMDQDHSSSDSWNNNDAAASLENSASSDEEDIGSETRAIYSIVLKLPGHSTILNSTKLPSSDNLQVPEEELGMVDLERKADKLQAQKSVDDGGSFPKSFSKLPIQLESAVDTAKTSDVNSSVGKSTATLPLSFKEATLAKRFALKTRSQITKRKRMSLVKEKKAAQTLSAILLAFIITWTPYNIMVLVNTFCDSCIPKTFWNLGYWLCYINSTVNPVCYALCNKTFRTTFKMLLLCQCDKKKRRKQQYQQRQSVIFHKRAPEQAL
Put plainly: Muscarine M3 receptor binding. Particulars: human M3, CHO cells; receptor binding.

Data set [4] is described as follows: Stability in human liver homogenate (metabolic stability in vitro). It counts as in vitro ADME. Particulars: read-out: t ½. From the text:
DÖRJE, F., WESS, J., LAMBRECHT, G., TACKE, R., […], E. and BRANN, M. R. (1991) Antagonist binding profiles of five cloned human muscarinic receptor subtypes. J. Pharmacol. Exp. Ther., 256: 727-733. • […], M. H. (1990) Rat hippocampal muscarinic autoreceptors are similar to the M2 (cardiac) subtype: comparison with hippocampal M1, atrial M2 and ileal M3 receptors. Brit. J. Pharmacol., 99: 753-761. • PERALTA, E. G., ASHKENAZI, A., WINSLOW, J. W., SMITH, D. H., […], J. and CAPON, D. J. (1987) Distinct primary structures, ligand-binding properties and tissue-specific expression of four human muscarinic acetylcholine receptors. EMBO. J., 6: 3923-3929. Determination of Metabolic Stability (In Vitro)
Method used according to procedures described by DI, L. et al., Journal of Biomolecular Screening, Vol. 8, No. 4, 453-462 (2003).

Data set [5] concerns the target T3, Muscarine M3 (GPCR-A-MA-ACH M3) (Cavia porcellus, UniProt H0W1Z3).
T3 construct: from tissue; host or cells: guinea pig ileum
Put plainly: Muscarine M3 functional assay, isolated organ (ileum), agonist and antagonist mode. Also on record: species or system Guinea Pig. Particulars: for EC50: read-out: Cell funct. Musc. M3 Agonism pEC50 (converted).

Data set [6] has as its target T1, Muscarine M4 (GPCR-A-MA-ACH M4). Put plainly: Muscarine M4 cell-based functional assay (CHO cells, Ca2+ - Aequorin luminescence). Particulars: human M4, CHO cells; agonist mode, reference agonist oxotremorine; read-out: Cell funct. Musc. M4 Agonism pEC50 (converted). Put shortly:
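CHO cells expressing human M4 were exposed to compound, with Ca2+ response read by aequorin luminescence. Compounds were first tested at 1 μM, then at 10-fold lower concentrations if active; stimulation or inhibition was relative to the reference agonist. EC50/IC50 came from Hill-equation fits.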

The target in data set [7] is T4, Muscarine M2 (GPCR-A-MA-ACH M2) (Homo sapiens, UniProt P08172).
T4 construct: expressed in transfected cells; host or cells: CHO cells
T4 sequence (P08172 1-466): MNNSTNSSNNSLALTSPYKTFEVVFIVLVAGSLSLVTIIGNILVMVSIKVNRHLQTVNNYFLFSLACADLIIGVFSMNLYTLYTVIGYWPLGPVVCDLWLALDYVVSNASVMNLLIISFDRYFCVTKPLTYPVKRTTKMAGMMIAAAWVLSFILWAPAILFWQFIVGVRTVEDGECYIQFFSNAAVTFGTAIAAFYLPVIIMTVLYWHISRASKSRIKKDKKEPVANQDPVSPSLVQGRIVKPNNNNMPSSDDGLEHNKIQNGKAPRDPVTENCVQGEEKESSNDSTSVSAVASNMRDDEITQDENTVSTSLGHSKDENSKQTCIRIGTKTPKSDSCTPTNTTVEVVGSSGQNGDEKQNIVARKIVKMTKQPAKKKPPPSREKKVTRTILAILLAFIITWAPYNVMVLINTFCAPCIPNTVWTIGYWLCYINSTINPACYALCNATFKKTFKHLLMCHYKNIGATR
Put plainly: Muscarine M2 receptor binding. Particulars: human M2, CHO cells; receptor binding.

T3 sequence (H0W1Z3 1-590): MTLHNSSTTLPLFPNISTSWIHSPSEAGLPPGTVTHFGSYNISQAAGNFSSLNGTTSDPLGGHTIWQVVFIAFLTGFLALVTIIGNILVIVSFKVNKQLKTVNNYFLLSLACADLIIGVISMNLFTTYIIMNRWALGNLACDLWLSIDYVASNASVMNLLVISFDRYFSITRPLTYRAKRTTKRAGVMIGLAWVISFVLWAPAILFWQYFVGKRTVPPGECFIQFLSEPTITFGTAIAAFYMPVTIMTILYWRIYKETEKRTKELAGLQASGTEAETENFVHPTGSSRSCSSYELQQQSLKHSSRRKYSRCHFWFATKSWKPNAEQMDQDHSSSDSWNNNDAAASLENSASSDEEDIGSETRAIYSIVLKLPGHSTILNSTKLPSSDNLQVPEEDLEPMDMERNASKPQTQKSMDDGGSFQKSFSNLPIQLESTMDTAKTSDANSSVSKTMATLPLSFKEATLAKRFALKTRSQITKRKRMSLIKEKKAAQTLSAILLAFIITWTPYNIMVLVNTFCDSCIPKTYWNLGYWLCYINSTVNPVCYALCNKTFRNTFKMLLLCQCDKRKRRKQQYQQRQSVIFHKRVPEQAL

For `CN1CCC=C(c2n[nH]cc2SCCC=C(F)F)C1` [Compound 22J, 3-[4-(4,4-Difluoro-but-3enylsulfanyl)-1H-pyrazol-3-yl]-1,2,5,6-tetrahydro-1-methylpyridine], the Ki in data set [1] was 251 nM; in data set [2], 63.1 nM; in data set [3] it was 316 nM; in data set [7] it was 3160 nM. Besides, the half-life in data set [4] came to 2.15 h. The compound also displayed an antagonist equilibrium constant (Kb) in data set [5] above 1000 nM. For the same compound, the EC50 was above 1000 nM in data set [5] and 251 nM in data set [6].

On to `C=CCCCSc1c[nH]nc1C1=CCCN(C)C1` [Compound 22L], for which the Ki in data set [1] is 100 nM; in data set [2], 63.1 nM; in data set [3] it was 316 nM; in data set [7], 2000 nM. Moreover, in data set [4], the half-life was found to be 0.933 h. In data set [5], this compound yielded a Kb above 1000 nM. Further, the EC50 in data set [5] is above 1000 nM; in data set [6], 63.1 nM.

With `CCOCCSc1c[nH]nc1C1=CCCN(C)C1` [Compound 22O, 3-[4-(2-Ethoxy-ethylsulfanyl)-1H-pyrazol-3-yl]-1,2,5,6-tetrahydro-1-methylpyridine], the Ki in data set [1] was 794 nM; in data set [2], 398 nM; in data set [3], 2510 nM; in data set [7], 10000 nM. Moreover, the half-life in data set [4] amounted to 4.08 h. Moreover, the antagonist dissociation constant (Kb) in data set [5] is above 1000 nM. For the same compound, the EC50 in data set [5] is above 1000 nM; in data set [6], 631 nM.

`C=CCCCOc1c[nH]nc1C1=CCCN(C)C1` [Compound 33F, 3-(4-Pent-4-enyloxy-1H-pyrazol-3-yl)-1,2,5,6-tetrahydro-1-methylpyridine]: the Ki in data set [1] was 501 nM; in data set [2], 316 nM; in data set [3] it was 1000 nM; in data set [7] it was 5010 nM. Besides, the half-life in data set [4] is 3.83 h. The compound further had a Kb in data set [5] above 1000 nM. Besides, the EC50 in data set [5] was above 1000 nM; in data set [6], 794 nM.

With `CCCCCOc1c[nH]nc1C1=CCCN(C)C1` [Compound 33G, 3-(4-Pentyloxy-1H-pyrazol-3-yl)-1,2,5,6-tetrahydro-1-methylpyridine], the Ki in data set [1] is 200 nM; in data set [2], 126 nM; in data set [3] it was 794 nM; in data set [7] it was 3980 nM. Besides, the half-life in data set [4] was 0.933 h. Also, the antagonist equilibrium constant (Kb) in data set [5] is above 1000 nM. Also, the results for the EC50 in data set [5] and in data set [6] were above 1000 nM and 631 nM, respectively.
